Assay results from PubChem BioAssay AID258 (DTP/NCI, 2004).
“And” between values parts separate entries of the source, which are not always exact repeats. Equal values may be shown once. Toxic doses and inconclusive results are not listed.

System: CD2F1 mice, L1210 leukemia sc, survival T/C
Experiment: NCI In Vivo Anticancer Drug Screen. Data for tumor model L1210 Leukemia (subcutaneous) in CD2F1 (CDF1) mice
Conditions: endpoint: median survival time, higher = longer survival
Procedure: The antitumor activity of compounds was measured in mice bearing transplantable tumors. Survival or tumor size were measured and the results are expressed as the measurement made in the treated group (T) divided by the measurement made in the vehicle treated control group (C). The tumor model used in this assay is L1210 Leukemia (subcutaneous) in CD2F1 (CDF1) mice

[1] = dose: 6.0 mg/kg/injection, schedule: Q01DX Z (sc), vehicle: other
[2] = dose: 65.0 mg/kg/injection, schedule: Q01DX Z (sc), vehicle: other

Compound: CCN(CC)CCNc1ccc(C)c2sc3ccccc3c(=O)c12
- T/C (dose: 25.0 mg/kg/injection, schedule: Q01DX009 (ip), vehicle: saline): 116 % of control
- T/C (dose: 100.0 mg/kg/injection, schedule: Q01DX009 (ip), vehicle: saline): 158 % of control
- T/C (dose: 200.0 mg/kg/injection, schedule: Q01DX009 (ip), vehicle: saline): 87 % of control

Compound: CC(=O)OC1COC(NC(=O)N(CCCl)N=O)C(OC(C)=O)C1OC(C)=O (stereo unspecified)
- T/C (dose: 0.75 mg/kg/injection, schedule: Q01DX009 (ip), vehicle: saline with Tween-80): 104 % of control
- T/C (dose: 1.5 mg/kg/injection, schedule: Q01DX009 (ip), vehicle: saline with Tween-80): 102 % of control
- T/C (dose: 3.0 mg/kg/injection, schedule: Q01DX009 (ip), vehicle: saline with Tween-80): 102 % of control and 122 % of control
- T/C (dose: 12.0 mg/kg/injection, schedule: Q01DX009 (ip), vehicle: saline with Tween-80): 158 % of control and 297 % of control

Compound: NC(=O)c1ncn2c(=O)n(CCCl)nnc12
- T/C (dose: 1.56 mg/kg/injection, schedule: Q01DX009 (ip), vehicle: suspension in saline): 123 % of control
- T/C (dose: 6.25 mg/kg/injection, schedule: Q01DX009 (ip), vehicle: suspension in saline): 195 % of control
- T/C (dose: 12.5 mg/kg/injection, schedule: Q01DX009 (ip), vehicle: suspension in saline): 309 % of control
- T/C (dose: 25.0 mg/kg/injection, schedule: Q01DX009 (ip), vehicle: suspension in saline): 206 % of control
- T/C (dose: 50.0 mg/kg/injection, schedule: Q01DX009 (ip), vehicle: suspension in saline): 100 % of control

Compound: O=C(Nc1nncs1)c1cccs1
- T/C (dose: 50.0 mg/kg/injection, schedule: Q01DX009 (ip), vehicle: saline with Tween-80): 99 % of control
- T/C (dose: 100.0 mg/kg/injection, schedule: Q01DX009 (ip), vehicle: saline with Tween-80): 95 % of control
- T/C (dose: 200.0 mg/kg/injection, schedule: Q01DX009 (ip), vehicle: saline with Tween-80): 100 % of control
- T/C (dose: 400.0 mg/kg/injection, schedule: Q01DX009 (ip), vehicle: saline with Tween-80): 100 % of control
- T/C (dose: 800.0 mg/kg/injection, schedule: Q01DX009 (ip), vehicle: saline with Tween-80): 121 % of control

Compound: Nc1nc(=S)c2ncn(C3OC(CO)C(O)C3O)c2[nH]1 (stereo unspecified)
- T/C [1]: 177 % of control
- T/C (dose: 10.1 mg/kg/injection, schedule: Q01DX Z (sc), vehicle: other): 183 % of control
- T/C (dose: 16.9 mg/kg/injection, schedule: Q01DX Z (sc), vehicle: other): 155 % of control
- T/C (dose: 28.1 mg/kg/injection, schedule: Q01DX Z (sc), vehicle: other): 161 % of control
- T/C (dose: 46.8 mg/kg/injection, schedule: Q01DX Z (sc), vehicle: other): 155 % of control
- T/C [2]: 123 % of control
- T/C (dose: 108.0 mg/kg/injection, schedule: Q01DX Z (sc), vehicle: other): 123 % of control
- T/C (dose: 180.0 mg/kg/injection, schedule: Q01DX Z (sc), vehicle: other): 114 % of control
- T/C (dose: 300.0 mg/kg/injection, schedule: Q01DX Z (sc), vehicle: other): 104 % of control

Compound: CCN(CC)c1ccc2cc3ccc(=[N+](CC)CC)cc-3oc2c1
- T/C (dose: 0.5 mg/kg/injection, schedule: Q01DX Z (sc), vehicle: methylcellulose (MC)): 100 % of control
- T/C (dose: 1.0 mg/kg/injection, schedule: Q01DX Z (sc), vehicle: methylcellulose (MC)): 100 % of control
- T/C (dose: 2.0 mg/kg/injection, schedule: Q01DX Z (sc), vehicle: methylcellulose (MC)): 100 % of control
- T/C (dose: 4.0 mg/kg/injection, schedule: Q01DX Z (sc), vehicle: methylcellulose (MC)): 100 % of control
- T/C (dose: 8.0 mg/kg/injection, schedule: Q01DX Z (sc), vehicle: methylcellulose (MC)): 100 % of control

Compound: CN(C)c1ccc(/C=C2\C=Cc3ccccc32)cc1
- T/C (dose: 39.0 mg/kg/injection, schedule: Q01DX Z (sc), vehicle: carboxymethylcellulose (CMC)): 100 % of control
- T/C (dose: 65.0 mg/kg/injection, schedule: Q01DX Z (sc), vehicle: carboxymethylcellulose (CMC)): 100 % of control
- T/C (dose: 108.0 mg/kg/injection, schedule: Q01DX Z (sc), vehicle: carboxymethylcellulose (CMC)): 100 % of control
- T/C (dose: 180.0 mg/kg/injection, schedule: Q01DX Z (sc), vehicle: carboxymethylcellulose (CMC)): 100 % of control
- T/C (dose: 300.0 mg/kg/injection, schedule: Q01DX Z (sc), vehicle: carboxymethylcellulose (CMC)): 100 % of control

Compound: CC1CN1CCS(=O)(=O)CCN1CC1C (stereo unspecified)
- T/C (dose: 0.17 mg/kg/injection, schedule: Q01DX Z (sc), vehicle: other): 100 % of control
- T/C (dose: 2.16 mg/kg/injection, schedule: Q01DX Z (sc), vehicle: other): 100 % of control
- T/C (dose: 3.6 mg/kg/injection, schedule: Q01DX Z (sc), vehicle: other): 122 % of control
- T/C [1]: 122 % of control

Compound: N#[N+]c1cnc([O-])[nH]c1=O
- T/C (dose: 14.0 mg/kg/injection, schedule: Q01DX Z (sc), vehicle: methylcellulose (MC)): 100 % of control
- T/C (dose: 23.0 mg/kg/injection, schedule: Q01DX Z (sc), vehicle: methylcellulose (MC)): 100 % of control
- T/C (dose: 39.0 mg/kg/injection, schedule: Q01DX Z (sc), vehicle: methylcellulose (MC)): 122 % of control
- T/C (dose: 39.0 mg/kg/injection, schedule: Q01DX Z (sc), vehicle: other): 100 % of control
- T/C [2]: 116 % of control

Compound: CC(=O)[C@H]1CC[C@H]2[C@@H]3C[C@H](C)C4=CC(=O)CC[C@]4(C)[C@H]3C(=O)C[C@]12C
- T/C (dose: 20.0 mg/kg/injection, schedule: Q01DX009 (ip), vehicle: saline with Tween-80): 94 % of control
- T/C (dose: 20.0 mg/kg/injection, schedule: Q01DX009 (sc), vehicle: saline with Tween-80): 97 % of control
- T/C (dose: 40.0 mg/kg/injection, schedule: Q01DX009 (ip), vehicle: saline with Tween-80): 93 % of control
- T/C (dose: 40.0 mg/kg/injection, schedule: Q01DX009 (sc), vehicle: saline with Tween-80): 98 % of control
- T/C (dose: 80.0 mg/kg/injection, schedule: Q01DX009 (ip), vehicle: saline with Tween-80): 93 % of control
- T/C (dose: 80.0 mg/kg/injection, schedule: Q01DX009 (sc), vehicle: saline with Tween-80): 101 % of control
- T/C (dose: 160.0 mg/kg/injection, schedule: Q01DX009 (ip), vehicle: saline with Tween-80): 93 % of control
- T/C (dose: 160.0 mg/kg/injection, schedule: Q01DX009 (sc), vehicle: saline with Tween-80): 98 % of control
- T/C (dose: 320.0 mg/kg/injection, schedule: Q01DX009 (ip), vehicle: saline with Tween-80): 96 % of control
- T/C (dose: 320.0 mg/kg/injection, schedule: Q01DX009 (sc), vehicle: saline with Tween-80): 105 % of control
- T/C (dose: 640.0 mg/kg/injection, schedule: Q01DX009 (sc), vehicle: saline with Tween-80): 109 % of control

Compound: CNNCc1ccc(C(=O)NC(N)=O)cc1
- T/C (dose: 50.0 mg/kg/injection, schedule: Q01DX Z (sc), vehicle: saline): 94 % of control
- T/C (dose: 100.0 mg/kg/injection, schedule: Q01DX Z (sc), vehicle: saline): 105 % of control
- T/C (dose: 200.0 mg/kg/injection, schedule: Q01DX Z (sc), vehicle: saline): 105 % of control
- T/C (dose: 400.0 mg/kg/injection, schedule: Q01DX Z (sc), vehicle: saline): 94 % of control

Compound: COC12C(COC(N)=O)C3=C(C(=O)C(C)=C(N)C3=O)N1CC1C2N1C (stereo unspecified)
- T/C (dose: 2.0 mg/kg/injection, schedule: Q01DX009 (ip), vehicle: saline): 101 % of control
- T/C (dose: 3.75 mg/kg/injection, schedule: Q01DX009 (ip), vehicle: saline): 105 % of control
- T/C (dose: 4.0 mg/kg/injection, schedule: Q01DX009 (ip), vehicle: saline): 120 % of control
- T/C (dose: 7.5 mg/kg/injection, schedule: Q01DX009 (ip), vehicle: saline): 110 % of control
- T/C (dose: 15.0 mg/kg/injection, schedule: Q01DX009 (ip), vehicle: saline): 117 % of control
- T/C (dose: 16.0 mg/kg/injection, schedule: Q01DX009 (ip), vehicle: saline): 101 % of control

Compound: COc1cc2c(c(OC)c1OC)-c1ccc(N)c(=O)cc1[C@@H](NC(C)=O)CC2
- T/C (dose: 1.0 mg/kg/injection, schedule: Q01DX Z (sc), vehicle: water): 90 % of control
- T/C (dose: 2.0 mg/kg/injection, schedule: Q01DX Z (sc), vehicle: water): 109 % of control
- T/C (dose: 4.0 mg/kg/injection, schedule: Q01DX Z (sc), vehicle: water): 109 % of control
- T/C (dose: 8.0 mg/kg/injection, schedule: Q01DX Z (sc), vehicle: water): 109 % of control
- T/C (dose: 16.0 mg/kg/injection, schedule: Q01DX Z (sc), vehicle: water): 109 % of control

Compound: CCN(CC)CCNc1ccc(CO)c2sc3ccccc3c(=O)c12
- T/C (dose: 10.0 mg/kg/injection, schedule: Q01DX009 (ip), vehicle: water): 103 % of control and 110 % of control and 116 % of control
- T/C (dose: 20.0 mg/kg/injection, schedule: Q01DX009 (ip), vehicle: water): 113 % of control and 115 % of control and 121 % of control
- T/C (dose: 40.0 mg/kg/injection, schedule: Q01DX009 (ip), vehicle: water): 150 % of control
- T/C (dose: 80.0 mg/kg/injection, schedule: Q01DX009 (ip), vehicle: water): 100 % of control
- T/C (dose: 160.0 mg/kg/injection, schedule: Q01DX009 (ip), vehicle: water): 103 % of control and 86 % of control and 94 % of control
